Counter-ions that a name gives are not always drawn.
Assays:
[1] = system: IPEC2 cells (swine intestinal cell line IPEC2-J2); assay: Methylated DNA quantification in swine intestinal cell line treated with antibiotics; format: cell-based; conditions: for average amount of methylated DNA: Tet 200 mg/L, Amx 100 mg/L, Col 480 mg/L, ± SEM; for size of the reduction in overall DNA methylation (rank among the three antibiotics): within 24 hrs of treatment, compared with antibiotic free control cells
Protocol: An in vitro to investigate the effects of three different antibiotics on the DNA methylation quantity in a swine intestinal cell line.
An immortalised cell line from swine intestines (IPEC2-J2 ACC 701 from DSMZ cell culture) was utilized in the 7th passage. In a 12 well, flat-bottom plate, 1×10^4 cel|s/well were seeded with DPBS D8537 (Sigma-Aldrich) and initially incubated for 4 days. After incubation cells were treated with one of 4 treatments for up to an additional 4 days: • 1) Incubation for 4 days without any antibiotics • 2) Incubation for 1 day with antibiotics followed by incubation for 1-3 days in antibiotic free media • 3) Incubation for 2 days with antibiotics followed by incubation for 1-2 days in antibiotic free media • 4) Incubation for 3 days with antibiotics followed by incubation for 1 day in antibiotic free media
Treatments 2, 3 and 4 were repeated with 3 different antibiotic treatments; tetracycline hydrochloride at 200 mg/L, Amoxicillin at 100 mg/L and Colistin at 480 mg/L. Duplicate cells per treatment were harvested at each time point. Media was removed, cells were washed once with DPBS, and a cell scraper was used to disassociate the cells from the bottom of the well. Cell pellets were then stored at −80° C. until DNA could be isolated using the NuceloSpin® DNA Stool Kit (Macherey and Nagel). Methylation grade of 100ng of isolated DNA was determined using the Imprint® Methylated DNA Quantification Kit (Sigma-Aldrich) which compared samples to a standard curve of known methylated DNA.

[2] = cited from earlier work; for Absorption: absorption level of the antibiotic
[3] = 1 day with antibiotic before washing, harvested Day 1
[4] = 1 day with antibiotic before washing, harvested Day 2
[5] = 1 day with antibiotic before washing, harvested Day 3
[6] = 1 day with antibiotic before washing, harvested Day 4
[7] = 2 days with antibiotic before washing, harvested Day 2
[8] = 2 days with antibiotic before washing, harvested Day 3
[9] = 2 days with antibiotic before washing, harvested Day 4
[10] = 3 days with antibiotic before washing, harvested Day 3
[11] = 3 days with antibiotic before washing, harvested Day 4

Compound	average amount of methylated DNA [1, 3]	average amount of methylated DNA [1, 4]	average amount of methylated DNA [1, 5]	average amount of methylated DNA [1, 6]	average amount of methylated DNA [1, 7]	average amount of methylated DNA [1, 8]	average amount of methylated DNA [1, 9]	average amount of methylated DNA [1, 10]	average amount of methylated DNA [1, 11]	Absorption [2]	Recommended Withdrawal for Broilers [2]	size of the reduction in overall DNA methylation (rank among the three antibiotics) [1]
CC1(C)S[C@@H]2[C@H](NC(=O)[C@H](N)c3ccc(O)cc3)C(=O)N2[C@H]1C(=O)O [Amoxicillin]	4.1 ± 8.9 ng/100 ng isolated DNA	12.3 ± 3.2 ng/100 ng isolated DNA	20.4 ± 8.3 ng/100 ng isolated DNA	19.0 ± 2.1 ng/100 ng isolated DNA	20.9 ± 10.4 ng/100 ng isolated DNA	9.8 ± 4.7 ng/100 ng isolated DNA	21.3 ± 3.4 ng/100 ng isolated DNA	26.0 ± 10.2 ng/100 ng isolated DNA	10.2 ± 9.4 ng/100 ng isolated DNA	Systemic	1 to 4 days	–
CN(C)[C@@H]1C(O)=C(C(N)=O)C(=O)[C@@]2(O)C(O)=C3C(=O)c4c(O)cccc4[C@@](C)(O)[C@H]3C[C@@H]12 [Tet, tetracycline hydrochloride]	−5.6 ± 2.9 ng/100 ng isolated DNA	12.0 ± 6.9 ng/100 ng isolated DNA	18.2 ± 16.0 ng/100 ng isolated DNA	25.8 ± 22.4 ng/100 ng isolated DNA	0.1 ± 8.1 ng/100 ng isolated DNA	−8.6 ± 11.1 ng/100 ng isolated DNA	7.4 ± 9.7 ng/100 ng isolated DNA	6.0 ± 13.2 ng/100 ng isolated DNA	21.7^3 ng/100 ng isolated DNA	–	–	largest
CC[C@H]1OC(=O)C[C@@H](O)[C@H](C)[C@@H](O[C@@H]2O[C@H](C)[C@@H](O[C@H]3C[C@@](C)(O)[C@@H](O)[C@H](C)O3)[C@H](N(C)C)[C@H]2O)[C@@H](CC=O)C[C@@H](C)C(=O)/C=C/C(C)=C/[C@@H]1CO[C@@H]1O[C@H](C)[C@@H](O)[C@@H](OC)[C@H]1OC [Tylosin]	–	–	–	–	–	–	–	–	–	Systemic	5 days	–
Bacitracin Methylene Disalicylate [BMD]	–	–	–	–	–	–	–	–	–	Local	None required	–
Colistin	26.1 ± 5.0 ng/100 ng isolated DNA	11.7 ± 6.8 ng/100 ng isolated DNA	19.6 ± 5.5 ng/100 ng isolated DNA	24.9 ± 0.8 ng/100 ng isolated DNA	29.5 ± 3.8 ng/100 ng isolated DNA	1.4 ± 7.9 ng/100 ng isolated DNA	19.0 ± 5.4 ng/100 ng isolated DNA	29.1 ± 18.0 ng/100 ng isolated DNA	28.5 ± 16.4 ng/100 ng isolated DNA	–	–	finally
